Test results as given in PMC5218480 (PLoS ONE, 2017).

Test system: MV-4-11 cells
Assay: Gene expression microarray analysis (Affymetrix PrimeView) and GSEA
Type: cell-based, human
Design: RFU PODN (11730768_x_at) / Fold change /veh PODN (11730768_x_at) / RFU LINC00158 (11744669_a_at) / Fold change /veh LINC00158 (11744669_a_at) / RFU DUSP10 (11751237_a_at) / Fold change /veh DUSP10 (11751237_a_at) / RFU ID3 (11757404_x_at) / Fold change /veh ID3 (11757404_x_at) / RFU PLEKHG5 (11737974_s_at) / Fold change /veh PLEKHG5 (11737974_s_at) / RFU LRRC4B (11730491_at) / Fold change /veh LRRC4B (11730491_at) / RFU GIMAP4 (11747438_a_at) / Fold change /veh GIMAP4 (11747438_a_at) / RFU KRT8 (11758183_x_at) / Fold change /veh KRT8 (11758183_x_at) / RFU CNN1 (11734310_a_at) / Fold change /veh CNN1 (11734310_a_at) / RFU VPS37D (11726825_at) / Fold change /veh VPS37D (11726825_at) / RFU C10orf10 (11716522_x_at) / Fold change /veh C10orf10 (11716522_x_at) / RFU KIR2DL2 /// KIR2DL4 /// KIR2DL5A /// KIR2DL5B /// KIR2DS1 /// KIR2DS2 /// KIR2DS3 /// KIR2DS4 /// KIR3DL3 /// KIR3DL3 /// KIR3DS1 (11738374_at) / Fold change /veh KIR2DL2 /// KIR2DL4 /// KIR2DL5A /// KIR2DL5B /// KIR2DS1 /// KIR2DS2 /// KIR2DS3 /// KIR2DS4 /// KIR3DL3 /// KIR3DL3 /// KIR3DS1 (11738374_at) / RFU C1QL1 (11718748_at) / Fold change /veh C1QL1 (11718748_at) / RFU TMPRSS4 (11747572_a_at) / Fold change /veh TMPRSS4 (11747572_a_at) / RFU HAMP (11756126_x_at) / Fold change /veh HAMP (11756126_x_at) / RFU RNFT2 (11725882_a_at) / Fold change /veh RNFT2 (11725882_a_at) / RFU NR4A2 (11747474_a_at) / Fold change /veh NR4A2 (11747474_a_at) / RFU ABCC12 (11746883_a_at) / Fold change /veh ABCC12 (11746883_a_at) / RFU TMEM136 (11760407_x_at) / Fold change /veh TMEM136 (11760407_x_at) / RFU CLDN22 /// WWC2 (11732394_at) / Fold change /veh CLDN22 /// WWC2 (11732394_at) / RFU HLA-DPB1 (11760878_x_at) / Fold change /veh HLA-DPB1 (11760878_x_at) / RFU SPINT1 (11716480_a_at) / Fold change /veh SPINT1 (11716480_a_at) / RFU GAP43 (11754022_s_at) / Fold change /veh GAP43 (11754022_s_at) / RFU A4GNT (11735810_at) / Fold change /veh A4GNT (11735810_at) / RFU PRB3 (11715151_x_at) / Fold change /veh PRB3 (11715151_x_at) / RFU TUBB4B (11761932_at) / Fold change /veh TUBB4B (11761932_at) / RFU CAPN14 (11732068_a_at) / Fold change /veh CAPN14 (11732068_a_at) / RFU TMCC2 (11721928_a_at) / Fold change /veh TMCC2 (11721928_a_at) / RFU IRGQ (11745062_a_at) / Fold change /veh IRGQ (11745062_a_at) / RFU FAM174B (11720279_a_at) / Fold change /veh FAM174B (11720279_a_at) / RFU TMPRSS4 (11748680_a_at) / Fold change /veh TMPRSS4 (11748680_a_at) / RFU FAM212B (11763350_a_at) / Fold change /veh FAM212B (11763350_a_at) / RFU PLEKHG5 (11743358_a_at) / Fold change /veh PLEKHG5 (11743358_a_at) / RFU ZSCAN30 (11745921_a_at) / Fold change /veh ZSCAN30 (11745921_a_at) / RFU CMKLR1 (11741424_a_at) / Fold change /veh CMKLR1 (11741424_a_at) / RFU LOC101060620 /// MAPK8IP1 (11723275_at) / Fold change /veh LOC101060620 /// MAPK8IP1 (11723275_at) / RFU SPTSSB (11747773_x_at) / Fold change /veh SPTSSB (11747773_x_at) / RFU PRSS12 (11739890_at) / Fold change /veh PRSS12 (11739890_at) / RFU BIN1 (11741810_x_at) / Fold change /veh BIN1 (11741810_x_at) / RFU WNT11 (11732464_a_at) / Fold change /veh WNT11 (11732464_a_at) / RFU C10orf10 (11716521_a_at) / Fold change /veh C10orf10 (11716521_a_at) / RFU C5orf56 (11738089_at) / Fold change /veh C5orf56 (11738089_at) / RFU CYB561 (11721691_x_at) / Fold change /veh CYB561 (11721691_x_at) / RFU ANKRD19P (11752326_a_at) / Fold change /veh ANKRD19P (11752326_a_at) / RFU OR2T12 /// OR2T33 /// OR2T8 (11738714_s_at) / Fold change /veh OR2T12 /// OR2T33 /// OR2T8 (11738714_s_at) / RFU VCAN (11748164_a_at) / Fold change /veh VCAN (11748164_a_at) / RFU JSRP1 (11732532_at) / Fold change /veh JSRP1 (11732532_at) / RFU KRTAP10-11 (11738290_x_at) / Fold change /veh KRTAP10-11 (11738290_x_at) / RFU MYO3A (11730013_a_at) / Fold change /veh MYO3A (11730013_a_at) / RFU EBF3 (11725865_a_at) / Fold change /veh EBF3 (11725865_a_at) / RFU CAMK2N1 (11719241_x_at) / Fold change /veh CAMK2N1 (11719241_x_at) / RFU C5orf56 (11738088_a_at) / Fold change /veh C5orf56 (11738088_a_at) / RFU OLFML3 (11715873_a_at) / Fold change /veh OLFML3 (11715873_a_at) / RFU LOC100653217 /// NTM (11731650_a_at) / Fold change /veh LOC100653217 /// NTM (11731650_a_at) / RFU MAPK11 (11762145_a_at) / Fold change /veh MAPK11 (11762145_a_at) / RFU FIZ1 (11724087_x_at) / Fold change /veh FIZ1 (11724087_x_at) / RFU OASL (11726364_x_at) / Fold change /veh OASL (11726364_x_at) / RFU SOX15 (11748057_x_at) / Fold change /veh SOX15 (11748057_x_at) / RFU CD79A (11719716_a_at) / Fold change /veh CD79A (11719716_a_at) / RFU HIST1H1D (11736915_at) / Fold change /veh HIST1H1D (11736915_at) / RFU CASKIN2 (11723855_a_at) / Fold change /veh CASKIN2 (11723855_a_at) / RFU LOC730098 (11760151_x_at) / Fold change /veh LOC730098 (11760151_x_at) / RFU OR4N2 (11742367_at) / Fold change /veh OR4N2 (11742367_at) / RFU PRRT2 (11749266_a_at) / Fold change /veh PRRT2 (11749266_a_at) / RFU SNX32 (11753110_a_at) / Fold change /veh SNX32 (11753110_a_at) / RFU CDHR5 (11726645_a_at) / Fold change /veh CDHR5 (11726645_a_at) / RFU RCAN1 (11760418_a_at) / Fold change /veh RCAN1 (11760418_a_at) / RFU FAM167A (11723789_a_at) / Fold change /veh FAM167A (11723789_a_at) / RFU FAM26E (11764081_at) / Fold change /veh FAM26E (11764081_at) / RFU ISYNA1 (11749810_s_at) / Fold change /veh ISYNA1 (11749810_s_at) / RFU ACY1 (11761880_at) / Fold change /veh ACY1 (11761880_at) / RFU 11764098_at / Fold change /veh 11764098_at / RFU SAMD14 (11745864_x_at) / Fold change /veh SAMD14 (11745864_x_at) / RFU NPB (11741838_a_at) / Fold change /veh NPB (11741838_a_at) / RFU TMPRSS6 (11731388_a_at) / Fold change /veh TMPRSS6 (11731388_a_at) / RFU KRTAP10-2 (11738614_at) / Fold change /veh KRTAP10-2 (11738614_at) / RFU ARHGAP8 /// PRR5-ARHGAP8 (11727945_x_at) / Fold change /veh ARHGAP8 /// PRR5-ARHGAP8 (11727945_x_at) / RFU KRTAP5-7 /// NADSYN1 (11734609_at) / Fold change /veh KRTAP5-7 /// NADSYN1 (11734609_at) / RFU RASL12 (11751679_a_at) / Fold change /veh RASL12 (11751679_a_at) / RFU CDKN2B (11736163_a_at) / Fold change /veh CDKN2B (11736163_a_at) / RFU PRF1 (11729649_at) / Fold change /veh PRF1 (11729649_at) / RFU, ZNF638 /// ZNF638-IT1 / Fold change vs veh, ZNF638 /// ZNF638-IT1 / RFU, PANK3 / Fold change vs veh, PANK3 / RFU, SH3YL1 / Fold change vs veh, SH3YL1 / RFU, ZEB2 / Fold change vs veh, ZEB2 / RFU, NRIP1 / Fold change vs veh, NRIP1 / RFU, PTTG1IP / Fold change vs veh, PTTG1IP / RFU, CAPN2 / Fold change vs veh, CAPN2 / RFU, MED14 / Fold change vs veh, MED14 / RFU, SNORA58 / Fold change vs veh, SNORA58 / RFU, C1orf63 / Fold change vs veh, C1orf63 / RFU, LRRFIP1 / Fold change vs veh, LRRFIP1 / RFU, NDUFAF7 / Fold change vs veh, NDUFAF7 / RFU, SLC12A2 / Fold change vs veh, SLC12A2 / RFU, IBTK / Fold change vs veh, IBTK / RFU, ESF1 / Fold change vs veh, ESF1 / Fold change vs veh, TMEM50B / RFU, TAOK1 / Fold change vs veh, TAOK1 / RFU, ACBD3 / Fold change vs veh, ACBD3 / RFU, TMA16 / Fold change vs veh, TMA16 / RFU, RWDD3 / Fold change vs veh, RWDD3 / RFU, BCAT1 / Fold change vs veh, BCAT1 / RFU, EDEM3 / Fold change vs veh, EDEM3 / RFU, TMEM33 / Fold change vs veh, TMEM33 / RFU, WDR75 / Fold change vs veh, WDR75 / RFU, AHCTF1 / Fold change vs veh, AHCTF1 / RFU, TFRC / Fold change vs veh, TFRC / RFU, ZDHHC17 / Fold change vs veh, ZDHHC17 / RFU, NOM1 / Fold change vs veh, NOM1 / RFU, ARL8B / Fold change vs veh, ARL8B / RFU, ZBTB11 / Fold change vs veh, ZBTB11 / RFU, TAMM41 / Fold change vs veh, TAMM41 / RFU, KIAA1704 /// LOC100996395 / Fold change vs veh, KIAA1704 /// LOC100996395 / RFU, ING1 / Fold change vs veh, ING1 / RFU, TRMT61B / Fold change vs veh, TRMT61B / RFU, FUBP3 / Fold change vs veh, FUBP3 / RFU, TP53 / Fold change vs veh, TP53 / RFU, TNKS2 / Fold change vs veh, TNKS2 / RFU, ZFP14 / Fold change vs veh, ZFP14 / RFU, ACTR2 / Fold change vs veh, ACTR2 / RFU, PPP3R1 / Fold change vs veh, PPP3R1 / RFU, PIK3R1 / Fold change vs veh, PIK3R1 / RFU, HNRNPA1 / Fold change vs veh, HNRNPA1 / RFU, RNF170 / Fold change vs veh, RNF170 / RFU, ZNF28 / Fold change vs veh, ZNF28 / RFU, RNGTT / Fold change vs veh, RNGTT / RFU, OGT / Fold change vs veh, OGT / RFU, BRD1 / Fold change vs veh, BRD1 / RFU, MARS / Fold change vs veh, MARS / RFU, ZNF655 / Fold change vs veh, ZNF655 / RFU, FAHD1 / Fold change vs veh, FAHD1 / RFU, BDP1 / Fold change vs veh, BDP1 / RFU, LRRCC1 / Fold change vs veh, LRRCC1 / RFU, ARID1A / Fold change vs veh, ARID1A / RFU, ZNF146 / Fold change vs veh, ZNF146 / RFU, ZNF330 / Fold change vs veh, ZNF330 / RFU, GPN3 / Fold change vs veh, GPN3 / RFU, C9orf123 / Fold change vs veh, C9orf123 / RFU, N4BP2L2 / Fold change vs veh, N4BP2L2 / RFU, ARFIP1 / Fold change vs veh, ARFIP1 / RFU, FAM179B / Fold change vs veh, FAM179B / RFU, BCL10 / Fold change vs veh, BCL10 / RFU, UHRF1BP1L / Fold change vs veh, UHRF1BP1L / RFU, BET1 / Fold change vs veh, BET1 / RFU, CNOT2 / Fold change vs veh, CNOT2 / RFU, ZNF268 / Fold change vs veh, ZNF268 / Fold change vs veh, ZNF507 / RFU, DGCR2 / Fold change vs veh, DGCR2 / RFU, WDSUB1 / Fold change vs veh, WDSUB1 / Fold change vs veh, HSP90B1 /// MIR3652 / RFU, ADSS / Fold change vs veh, ADSS / RFU, GK / Fold change vs veh, GK / RFU, ZNF148 / Fold change vs veh, ZNF148 / RFU, TAF9 / Fold change vs veh, TAF9 / RFU, SLC1A5 / Fold change vs veh, SLC1A5 / RFU, SLMO2 / Fold change vs veh, SLMO2 / RFU, ABCC4 / Fold change vs veh, ABCC4 / RFU, LOC101060439 /// RAP1B / Fold change vs veh, LOC101060439 /// RAP1B / RFU, RFX7 / Fold change vs veh, RFX7 / RFU, GTPBP10 / Fold change vs veh, GTPBP10 / RFU, CNEP1R1 / Fold change vs veh, CNEP1R1 / RFU, BIVM-ERCC5 /// ERCC5 / Fold change vs veh, BIVM-ERCC5 /// ERCC5 / RFU, ILF3 / Fold change vs veh, ILF3 / RFU 11762660_at / Fold change /veh 11762660_at / RFU VCAN (11757783_s_at) / Fold change /veh VCAN (11757783_s_at) / RFU DDX43 (11728927_at) / Fold change /veh DDX43 (11728927_at) / RFU KRT8 (11758188_x_at) / Fold change /veh KRT8 (11758188_x_at) / RFU NKD1 (11759106_at) / Fold change /veh NKD1 (11759106_at) / RFU SRD5A1 (11742802_a_at) / Fold change /veh SRD5A1 (11742802_a_at) / RFU TPSAB1 /// TPSB2 (11721975_s_at) / Fold change /veh TPSAB1 /// TPSB2 (11721975_s_at) / RFU GSTM3 (11746129_a_at) / Fold change /veh GSTM3 (11746129_a_at) / RFU IL23R (11737362_x_at) / Fold change /veh IL23R (11737362_x_at) / RFU TMEM51 (11727254_a_at) / Fold change /veh TMEM51 (11727254_a_at) / RFU PIWIL2 (11732686_x_at) / Fold change /veh PIWIL2 (11732686_x_at) / RFU ORM1 (11744905_x_at) / Fold change /veh ORM1 (11744905_x_at) / RFU CCDC152 (11743942_at) / Fold change /veh CCDC152 (11743942_at) / RFU ECM1 (11717891_a_at) / Fold change /veh ECM1 (11717891_a_at) / RFU IL23R (11748794_a_at) / Fold change /veh IL23R (11748794_a_at) / RFU TNFAIP8L3 (11732012_x_at) / Fold change /veh TNFAIP8L3 (11732012_x_at) / RFU MBOAT4 (11741988_at) / Fold change /veh MBOAT4 (11741988_at) / RFU 11764193_at / Fold change /veh 11764193_at / RFU TMEM53 (11763286_at) / Fold change /veh TMEM53 (11763286_at) / RFU MAGEB2 (11727129_at) / Fold change /veh MAGEB2 (11727129_at) / RFU TMEM200A (11744735_a_at) / Fold change /veh TMEM200A (11744735_a_at) / RFU CCDC152 (11751479_a_at) / Fold change /veh CCDC152 (11751479_a_at) / RFU FAM211A (11726209_a_at) / Fold change /veh FAM211A (11726209_a_at) / RFU RGS16 (11746705_a_at) / Fold change /veh RGS16 (11746705_a_at) / RFU VCAN (11755009_s_at) / Fold change /veh VCAN (11755009_s_at) / RFU RHOB (11743442_s_at) / Fold change /veh RHOB (11743442_s_at) / RFU RGS16 (11720943_a_at) / Fold change /veh RGS16 (11720943_a_at) / RFU RGS16 (11720944_at) / Fold change /veh RGS16 (11720944_at) / RFU, VPS4B / Fold change vs veh, VPS4B / RFU, CREB1 / Fold change vs veh, CREB1 / RFU, DNAJC13 / Fold change vs veh, DNAJC13 / RFU, GNAQ / Fold change vs veh, GNAQ / RFU, CDK5R1 / Fold change vs veh, CDK5R1 / RFU, ZRANB3 / Fold change vs veh, ZRANB3 / RFU, CUL4A / Fold change vs veh, CUL4A / RFU, CCNY / Fold change vs veh, CCNY / RFU, UFL1 / Fold change vs veh, UFL1 / RFU, COG3 / Fold change vs veh, COG3 / RFU, DIAPH2 / Fold change vs veh, DIAPH2 / RFU, SKA2 / Fold change vs veh, SKA2 / RFU, AFF3 / Fold change vs veh, AFF3 / RFU, LMF1 / Fold change vs veh, LMF1 / RFU, IPO11 / Fold change vs veh, IPO11 / RFU, DFFB / Fold change vs veh, DFFB / RFU, FOXP1 / Fold change vs veh, FOXP1 / RFU, CARD8 / Fold change vs veh, CARD8 / RFU, STRN3 / Fold change vs veh, STRN3 / RFU, ADK / Fold change vs veh, ADK / RFU, RASSF2 / Fold change vs veh, RASSF2 / RFU, WIPF1 / Fold change vs veh, WIPF1 / RFU, LARP1B / Fold change vs veh, LARP1B / RFU, RASA1 / Fold change vs veh, RASA1 / RFU, RB1 / Fold change vs veh, RB1 / RFU, PPFIA1 / Fold change vs veh, PPFIA1 / RFU, MAT2A / Fold change vs veh, MAT2A / RFU, CCT5 / Fold change vs veh, CCT5 / RFU, WDR92 / Fold change vs veh, WDR92 / RFU, CUX1 / Fold change vs veh, CUX1 / RFU, TTC7A / Fold change vs veh, TTC7A / RFU, TMEM135 / Fold change vs veh, TMEM135 / RFU, DEPTOR / Fold change vs veh, DEPTOR / RFU, CPM / Fold change vs veh, CPM / RFU, DNAJB6 / Fold change vs veh, DNAJB6 / RFU, CACNA2D3 / Fold change vs veh, CACNA2D3 / RFU, DTX4 / Fold change vs veh, DTX4 / RFU, TFCP2 / Fold change vs veh, TFCP2 / RFU, GMCL1 /// GMCL1P1 / Fold change vs veh, GMCL1 /// GMCL1P1 / RFU, AEBP2 / Fold change vs veh, AEBP2 / RFU, SNHG1 /// SNORD22 /// SNORD25 /// SNORD26 /// SNORD27 /// SNORD28 /// SNORD29 /// SNORD31 / Fold change vs veh, SNHG1 /// SNORD22 /// SNORD25 /// SNORD26 /// SNORD27 /// SNORD28 /// SNORD29 /// SNORD31 / Fold change (Aza/veh), C12orf56 (ProbeSet 11735607_a_at) / Fold change (ACY-1035/veh), C12orf56 (ProbeSet 11735607_a_at) / Fold change (Aza/veh), FGFR1OP (ProbeSet 11751329_s_at) / Fold change (ACY-1035/veh), FGFR1OP (ProbeSet 11751329_s_at) / Fold change (Aza/veh), VPS36 (ProbeSet 11739960_a_at) / Fold change (ACY-1035/veh), VPS36 (ProbeSet 11739960_a_at) / RFU SYPL1 (11715823_x_at) / Fold change /veh SYPL1 (11715823_x_at) / RFU IGFBP7 (11715501_s_at) / Fold change /veh IGFBP7 (11715501_s_at) / RFU REEP3 (11722064_at) / Fold change /veh REEP3 (11722064_at) / RFU IGLL1 (11728026_x_at) / Fold change /veh IGLL1 (11728026_x_at): dose or concentration left out as unconfirmed
Conditions: MV-4-11 cells, 48 hours

SMILES: Nc1ccc(-c2cccs2)cc1NC(=O)c1ccc2c(c1)cc(C1CC1)n2CCN1CCOCC1 [ACY-1035]
- Fold change /veh RGS16 (11720943_a_at): 0.99
